Results: US7642239B2, “Inhibition of placenta growth factor (PLGF) mediated metastasis and/or angiogenesis” (Center for Molecular Medicine and Immunology, priority 2005, dated 2010)
Ends that are not written are not given here.

Tested on: MDA-MB-468 xenografts
Type: in vivo, mice
Conditions: 200 μg/dose i.p., twice-weekly
Experimental: FIG. 5. Treatment of mice bearing MDA-MB-468 xenografts with peptides BP1 or BP3. Mice were treated every 3-4 days with 200 ug BP as described in Methods. Tumor volume was measured 2×/week. *P<0.05 at days 10, 14, 17 and 24 (change in tumor volume (ANOVA)). FIG. 5A—tumors treated with binding peptide 1. FIG. 5B—tumors treated with binding peptide 3.
Mice bearing MDA-MB-468 xenografts (average tumor volume: 0.19 cm^3) were treated with i.p. injections of individual peptides (200 μg/dose) (FIG. 5). After 4 weeks of twice-weekly treatment, tumor growth was inhibited by 49% and 58% in mice treated with BP1 (FIG. 5A) or BP3 (FIG. 5B), respectively. The effect of BP3 on tumor growth was apparent after 2 weeks of treatment (FIG. 5B), whereas the inhibitory effect of BP1 was evident after one week (FIG. 5A). The average changes in individual tumor volumes during treatment with BP1 were significant (P<0.05) at days 10, 14, 17 and 24 (FIG. 5A). Treatment with BP2 was ineffective; tumors continued to grow at almost the same rate as the mock-treated controls (results not shown). BP4 treatment produced a 20% inhibition of tumor growth (results not shown).

**Q.** For SHRYRLAIQLHASDSSSSCV [BP1], which “duration of treatment after which effect on tumor growth was apparent” value is on record?
**A.** one week
